Reference: ChEMBL document CHEMBL3526148, “Cerebrospinal fluid can be used as a surrogate to assess brain exposures of breast cancer resistance protein and P-glycoprotein substrates” (Drug Metab Dispos, 2012)

Columns and labels:
Assay type in all cases: ADME, cell-based; call rule not given here
[1] = target: T1, Broad substrate specificity ATP-binding cassette transporter ABCG2 (Homo sapiens, UniProt Q9UNQ0); assay: Inhibition of BCRP-mediated [3H]estrone-3-sulfate transport in human Caco2 cells at 3 uM after 30 mins; details: caco-2, 0.5 h
T1 sequence (Q9UNQ0 whole entry): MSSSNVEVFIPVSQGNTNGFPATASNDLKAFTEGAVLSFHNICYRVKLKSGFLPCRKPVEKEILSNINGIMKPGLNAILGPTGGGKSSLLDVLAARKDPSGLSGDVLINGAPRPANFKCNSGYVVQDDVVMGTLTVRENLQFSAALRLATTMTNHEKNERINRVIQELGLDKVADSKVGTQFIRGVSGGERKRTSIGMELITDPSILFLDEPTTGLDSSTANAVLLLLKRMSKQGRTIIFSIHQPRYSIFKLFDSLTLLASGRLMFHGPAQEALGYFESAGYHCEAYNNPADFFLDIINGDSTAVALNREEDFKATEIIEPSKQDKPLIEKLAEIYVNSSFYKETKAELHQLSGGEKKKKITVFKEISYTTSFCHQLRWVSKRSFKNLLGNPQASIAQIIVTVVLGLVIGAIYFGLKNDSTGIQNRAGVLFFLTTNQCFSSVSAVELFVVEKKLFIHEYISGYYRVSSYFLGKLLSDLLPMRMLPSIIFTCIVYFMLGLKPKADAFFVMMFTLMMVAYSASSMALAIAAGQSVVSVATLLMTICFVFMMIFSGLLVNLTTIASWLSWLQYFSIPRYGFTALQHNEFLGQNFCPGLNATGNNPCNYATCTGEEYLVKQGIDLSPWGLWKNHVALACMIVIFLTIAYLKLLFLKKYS

[2] = Inhibition of P-gp-mediated [3H]-digoxin transport in human Caco2 cells at 3 uM after 30 mins; details: caco-2, 0.5 h
[3] = Inhibition of P-gp-mediated [3H]-digoxin transport in human Caco2 cells at 10 to 50 uM after 30 mins; details: caco-2, 0.5 h
[4] = Apparent permeability from basolateral to apical side in human Caco2 cells at 5 uM after 2 hrs; details: Caco-2
[5] = Apparent permeability from apical to basolateral side in human Caco2 cells at 5 uM after 2 hrs; details: Caco-2
[6] = target: T1, Broad substrate specificity ATP-binding cassette transporter ABCG2; assay: Inhibition of BCRP-mediated [3H]estrone-3-sulfate transport in human Caco2 cells at 1 uM after 30 mins; details: caco-2, 0.5 h
[7] = Inhibition of P-gp-mediated [3H]-digoxin transport in human Caco2 cells at 1 uM after 30 mins; details: caco-2, 0.5 h

For `COc1cc2c(cc1OC)CN(CCc1ccc(NC(=O)c3cccc4c(=O)c5cccc(OC)c5[nH]c34)cc1)CC2`, the “inhibition (INH)” value [1] was “Active” and the “inhibition (INH)” value [2] was “Active”.
In the case of `COc1ccc2c3c([nH]c2c1)[C@H](CC(C)C)N1C(=O)[C@H](CCC(=O)OC(C)(C)C)NC(=O)[C@@H]1C3`, the “inhibition (INH)” value [2] was “Not Active”.
With `O=C1CN(/N=C/c2ccc(-c3ccc([N+](=O)[O-])cc3)o2)C(O)=N1` [DANTROLENE] the “inhibition (INH)” value [3] was “Not Active”, the Papp B→A at 2 h, 5 µM [4] was 9.8 ×10⁻⁶ cm/s and the Papp A→B at 2 h, 5 µM [5] was 2 ×10⁻⁶ cm/s.
In the case of `C/C=C/C[C@@H](C)C(=O)[C@H]1C(=O)N[C@@H](C(C)C)C(=O)N(C)CC(=O)N(C)[C@@H](CC(C)C)C(=O)N[C@@H](C(C)C)C(=O)N(C)[C@@H](CC(C)C)C(=O)N[C@@H](C)C(=O)N[C@H](C)C(=O)N(C)[C@@H](CC(C)C)C(=O)N(C)[C@@H](CC(C)C)C(=O)N(C)[C@@H](C(C)C)C(=O)N1C` [VALSPODAR], the “inhibition (INH)” value [6] was “Not Active” and the “inhibition (INH)” value [7] was “Active”.
